The nature of data set [1]: Solubility in water and in acidic potassium monopersulfate solution. The following applies: in a 20% potassium monopersulfate solution, pH of about 1.2.
The nature of data set [2]: Storage stability of dry blends (ambient and accelerated aging in humid oven). Format: physicochemical. The note with it: one month. How it is done:
In all examples, active oxidant concentrations are expressed in weight percent and are determined by standard iodometric titration as described in the “OXONE Monopersulfate Compound Technical Information” Bulletin, No. H-42434-5, dated April 2000, published by E. I. du Pont de Nemours and Company.
A weighed sample (0.05-0.30 g) to be analyzed is dissolved in cold deionized water (<10° C., about 50 mL), treated with potassium iodide solution (10 mL 25% aqueous), acidified (10 mL 20% sulfuric acid), and titrated with standardized 0.1N sodium thiosulfate reagent to an endpoint visualized by a starch indicator. The total active oxidant content (active oxygen+active halogen) is expressed as percent active oxygen (% AO) and is calculated as follows: % AO=(0.8×Volume of titrant, mL)(Normality of titrant)/(Sample Weight, g).
OXONE monopersulfate compound (180 g, 90 wt. %) and anhydrous sodium dichloro-s-triazinetrione (20 g, 10 wt. %) were dry blended in a 250-ml high-density poly(propylene (HDPE) bottle. The mixture was placed on a laboratory roll mill for two hours to ensure complete blending of the components. The blended product was then divided into two portions. One portion was stored at ambient conditions (22±2° C., 55±5% relative humidity [RH]); the other in a humid oven at 50±2° C., 80±5% RH denoted as “accelerated aging”). Both portions were stored in sealed screw-cap HDPE bottles. Both samples were monitored on a weekly basis for one month to assess physical integrity and active oxidant loss. […]. […].

For data set [3] the following is noted: cited from earlier work.
Setting [4] is: accelerated aging, 50° C., 80% RH.
Where [5] appears, read: accelerated aging, 50±2° C., 80±5% RH, sealed HDPE containers.

Like-named read-outs stand apart in the source and are kept apart here.

Results on four compounds are retold here after patent US20060078584A1, “Multi-functional oxidizing composition” (priority 2004, published 2006).

In the case of `O=c1nc([O-])n(Cl)c(=O)n1Cl.[Na+]` [Comparative Example E, Anhydrous sodium dichloro-s-triazinetrione], the Solubility entry in data set [1] is “about 1 g/100 mL”. Also, in data set [2] (setting [4]), the “Active oxidant retention / loss” value was “acceptable active oxidant stability”, the “Chlorine odor / halogen evolution” value is reported as “characteristic chlorine odor” and the “Flowability” value is given as “good flowability”. Further, in data set [2] (setting [5]), the “Chlorine Odor (degree 0-5)” value is reported as 3 and the Flowability entry is “Free-flowing”. In addition, the “Total % AO Remaining (%)” value in data set [2] (total oxidant (active oxygen + active halogen) remaining after accelerated storage, 50° C., 80% RH) is listed as 93%. The Solubility in water entry in data set [3] (neutral pH (about pH 6-7), 25° C.) is “about 24 g/100 g H2O”.

For `CC1(C)C(=O)N(Br)C(=O)N1Cl` [bromochlorodimethylhydantion, 3-bromo-1-chloro-5,5-dimethylhydantoin], the Solubility in water in data set [3] is recorded as 0.2 g/100 g water.

Take `CC1(C)C(=O)N(Br)C(=O)N1Br` [dibromodimethylhydantion, 1,3-dibromo-5,5-dimethylhydantoin]: in data set [3], the Solubility in water is reported as 0.25 g/100 g water.

`CC1(C)C(=O)N(Cl)C(=O)N1Cl` [dichlorodimethylhydantion, 1,3-dichloro-5,5-dimethylhydantoin]: in data set [3], the Solubility in water is 0.2 g/100 g water.
